Results reported in patent US20230339981A1, “KRAS G12D MODULATING COMPOUNDS” (priority 2022, published 2023).

Tests used:
GDP-loaded KRAS G12D = GDP-loaded KRAS G12D (Homo sapiens (Human), UniProt P01116, G12D); assay: KRAS G12D (GDP) biochemical assay (TR-FRET probe displacement); assay type: binding; settings: 2 hours
How it was run: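 TR-FRET probe displacement: 1:3 DMSO serial dilutions pre-incubated 30 min with GDP-bound KRAS G12D, followed by Eu-streptavidin/probe for 2 h at room temperature (Hepes pH 7.4, NaCl, MgCl2, Tween-20 buffer). IC50 defined as concentration halving TR-FRET ratio, from sigmoidal dose-response fit.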

AsPC-1 (KRAS G12D) cells = assay: 3D cell viability assay (spheroids, CellTiter-Glo 3D); assay type: cell-based; settings: AsPC-1 cells, 3D spheroids, 4 days
How it was run: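 AsPC-1 cells (1000/well) in DMEM with 10% FBS formed spheroids over 3 days at 37 °C in ultra-low attachment plates, then were treated with 1:3 serial dilutions for 4 days. Viability read by CellTiter-Glo 3D luminescence; EC50 as concentration giving 50% signal decrease, sigmoidal fit.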

GP2D (KRAS G12D) cells = assay: 2D cell viability assay (CellTiter-Glo); assay type: cell-based; settings: 4 days
How it was run: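 Viability was read by CellTiter-Glo after 4 days at 37 °C of 2D culture of KRAS G12D GP2D cells (1000/well, RPMI, 10% FBS) on pre-spotted threefold compound dilutions. EC50 was fitted with a sigmoidal dose-response model as the point of half-maximal luminescence loss.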

Sequence of GDP-loaded KRAS G12D (P01116-2 other isoform, or with tags, fused parts or gaps G12D): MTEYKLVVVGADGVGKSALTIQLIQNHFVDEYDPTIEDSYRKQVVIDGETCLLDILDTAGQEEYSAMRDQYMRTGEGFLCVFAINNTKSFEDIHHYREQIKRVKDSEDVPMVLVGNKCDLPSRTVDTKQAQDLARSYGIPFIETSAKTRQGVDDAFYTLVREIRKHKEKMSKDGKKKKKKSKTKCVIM

SMILES	IC50 (GDP-loaded KRAS G12D)	EC50 (AsPC-1 (KRAS G12D) cells; Homo sapiens, ASPC1, 96 h)	EC50 (GP2D (KRAS G12D) cells; GP2d, 96 h)	EC50 (AsPC-1 (KRAS G12D) cells)	EC50 (GP2D (KRAS G12D) cells)
C#Cc1c(F)ccc2cc(O)cc(-c3nc4c5c(nc(OCC6(CN7CCC[Si](C)(C)CC7)CC6)nc5c3F)N3C[C@H]5CC[C@H](N5)[C@H]3CC4)c12 [Example 78, 4-((5aR,6S,9R)-12-((1-((4,4-dimethyl-1,4-azasilepan-1-yl)methyl)cyclopropyl)methoxy)-1-fluoro-4,5,5a,6,7,8,9,10-octahydro-3,10a,11,13,14-pentaaza-6,9-methanonaphtho[1,8-ab]heptalen-2-yl)-5-ethynyl-6-fluoronaphthalen-2-ol]	0.2 nM	15 nM	3.9 nM	–	–
C#Cc1c(F)ccc2cccc(-c3nc4c5c(nc(OC[C@@]67CCCN6[C@H](CF)CC7)nc5c3F)N3C[C@H]5CC[C@H](N5)[C@H]3CC4)c12 [Example 166, (5aR,6S,9R)-2-(8-ethynyl-7-fluoronaphthalen-1-yl)-1-fluoro-12-(((3S,7aS)-3-(fluoromethyl)tetrahydro-1H-pyrrolizin-7a(5H)-yl)methoxy)-4,5,5a,6,7,8,9,10-octahydro-3,10a,11,13,14-pentaaza-6,9-methanonaphtho[1,8-ab]heptalene]	0.3 nM	110 nM	3.5 nM	–	–
Oc1cc(-c2nc3c4c(nc(OCC5(CN6CCC(OC(F)(F)F)CC6)CC5)nc4c2F)N2C[C@H]4CC[C@H](N4)[C@H]2CC3)c2c(OC(F)(F)F)c(F)ccc2c1 [Example 102, 6-fluoro-4-((5aR,6S,9R)-1-fluoro-12-((1-((4-(trifluoromethoxy)piperidin-1-yl)methyl)cyclopropyl)methoxy)-4,5,5a,6,7,8,9,10-octahydro-3,10a,11,13,14-pentaaza-6,9-methanonaphtho[1,8-ab]heptalen-2-yl)-5-(trifluoromethoxy)naphthalen-2-ol]	3.3 nM	680 nM	39.5 nM	–	–
C#Cc1c(F)ccc2cc(O)cc(-c3nc4c5c(nc(OC[C@@]67CCCN6[C@H](COC(=O)N6CCCCCC6)CC7)nc5c3F)N3C[C@H]5CC[C@H](N5)[C@H]3CO4)c12 [Example 38, ((3S,7aS)-7a-((((5aS,6S,9R)-2-(8-ethynyl-7-fluoro-3-hydroxynaphthalen-1-yl)-1-fluoro-5a,6,7,8,9,10-hexahydro-5H-4-oxa-3,10a,11,13,14-pentaaza-6,9-methanonaphtho[1,8-ab]heptalen-12-yl)oxy)methyl)hexahydro-1H-pyrrolizin-3-yl)methyl azepane-1-carboxylate]	0.3 nM	47 nM	28 nM	–	–
C#Cc1c(F)ccc2cc(O)cc(-c3nc4c5c(nc(OC[C@@]67CCCN6[C@H](COC(C6CC6)C(F)(F)F)CC7)nc5c3F)N3C[C@H]5CC[C@H](N5)[C@H]3CC4)c12 (stereo partly drawn) [Example 147, 4-((5aR,6S,9R)-12-(((3S,7aS)-3-((1-cyclopropyl-2,2,2-trifluoroethoxy)methyl)tetrahydro-1H-pyrrolizin-7a(5H)-yl)methoxy)-1-fluoro-4,5,5a,6,7,8,9,1O-octahydro-3,10a,11,13,14-pentaaza-6,9-methanonaphtho[1,8-ab]heptalen-2-yl)-5-ethynyl-6-fluoronaphthalen-2-ol]	< 0.1 nM	–	–	19 nM	1.3 nM
C#Cc1c(F)ccc2cc(O)cc(-c3nc4c5c(nc(OC[C@@]67CCCN6C[C@H](F)C7)nc5c3F)N3C[C@H]5CC[C@H](N5)[C@H]3CCO4)c12 [Example 123, 5-ethynyl-6-fluoro-4-((6aR,7S,10R)-1-fluoro-13-(((2R,7aS)-2-fluorotetrahydro-1H-pyrrolizin-7a(5H)-yl)methoxy)-5,6,6a,7,8,9,10,11-octahydro-4-oxa-3,11a,12,14,15-pentaaza-7,10-methanocyclohepta[4,5]cycloocta[1,2,3-de]naphthalen-2-yl)naphthalen-2-ol]	< 0.1 nM	3 nM	0.5 nM	–	–
C#Cc1c(F)ccc2cc(O)cc(-c3nc4c5c(nc(OC[C@@]67CCCN6C[C@H](F)C7)nc5c3F)N3C[C@H]5CC[C@H](N5)[C@H]3CCCC4)c12 [Example 189, 5-ethynyl-6-fluoro-4-((7aR,8S,11R)-1-fluoro-14-(((2R,7aS)-2-fluorotetrahydro-1H-pyrrolizin-7a(5H)-yl)methoxy)-4,5,6,7,7a,8,9,10,11,12-decahydro-3,12a,13,15,16-pentaaza-8,11-methanocyclohepta[4,5]cyclonona[1,2,3-de]naphthalen-2-yl)naphthalen-2-ol]	0.1 nM	2.9 nM	0.6 nM	–	–
C#Cc1c(F)ccc2cc(O)cc(-c3nc4c5c(nc(OC[C@]67CCCN6C[C@@H](OC(F)(F)F)C7)nc5c3F)N3C[C@H]5CC[C@H](N5)[C@H]3CC4)c12 (stereo in doubt) [Example 141, 5-ethynyl-6-fluoro-4-((5aR,6S,9R)-1-fluoro-12-((trans-2-(trifluoromethoxy)tetrahydro-1H-pyrrolizin-7a(5H)-yl)methoxy)-4,5,5a,6,7,8,9,10-octahydro-3,10a,11,13,14-pentaaza-6,9-methanonaphtho[1,8-ab]heptalen-2-yl)naphthalen-2-ol]	0.2 nM	3.7 nM	0.4 nM	–	–
C#Cc1c(F)ccc2cc(O)cc(-c3nc4c5c(nc(OC[C@@]67CCCN6C[C@H](F)C7)nc5c3F)N3C[C@H]5CC[C@H](N5)C3C[C@@H]4C)c12 (stereo in doubt) [Example 94, 5-ethynyl-6-fluoro-4-((4S,5aS,6S,9R)-1-fluoro-12-(((2R,7aS)-2-fluorotetrahydro-1H-pyrrolizin-7a(5H)-yl)methoxy)-4-methyl-4,5,5a,6,7,8,9,10-octahydro-3,10a,11,13,14-pentaaza-6,9-methanonaphtho[1,8-ab]heptalen-2-yl)naphthalen-2-ol]	0.1 nM	2.2 nM	0.6 nM	–	–
Oc1cc(-c2nc3c4c(nc(OC[C@@]56CCCN5C[C@H](F)C6)nc4c2F)N2C[C@H]4CC[C@H](N4)[C@H]2CO3)c2c(Cl)c(F)ccc2c1 [Example 9, 5-chloro-6-fluoro-4-((5aS,6S,9R)-1-fluoro-12-(((2R,7aS)-2-fluorotetrahydro-1H-pyrrolizin-7a(5H)-yl)methoxy)-5a,6,7,8,9,10-hexahydro-5H-4-oxa-3,10a,11,13,14-pentaaza-6,9-methanonaphtho[1,8-ab]heptalen-2-yl)naphthalen-2-ol]	0.5 nM	77 nM	20 nM	–	–
C#Cc1c(F)ccc2cccc(-c3nc4c5c(nc(OC[C@@]67CCCN6C[C@H](F)C7)nc5c3F)N3C[C@H]5CC[C@H](N5)[C@H]3C[C@H]4F)c12 [Example 173, (4R,5aR,6S,9R)-2-(8-ethynyl-7-fluoronaphthalen-1-yl)-1,4-difluoro-12-(((2R,7aS)-2-fluorotetrahydro-1H-pyrrolizin-7a(5H)-yl)methoxy)-4,5,5a,6,7,8,9,10-octahydro-3,10a,11,13,14-pentaaza-6,9-methanonaphtho[1,8-ab]heptalene]	< 0.1 nM	100 nM	4.2 nM	–	–
Oc1cc(-c2nc3c4c(nc(OC[C@@]56CCCN5C[C@H](F)C6)nc4c2F)N2C[C@H]4CC[C@H](N4)[C@H]2CO3)c2ccccc2c1 [Example 20, 4-((5aS,6S,9R)-1-fluoro-12-(((2R,7aS)-2-fluorotetrahydro-1H-pyrrolizin-7a(5H)-yl)methoxy)-5a,6,7,8,9,10-hexahydro-5H-4-oxa-3,10a,11,13,14-pentaaza-6,9-methanonaphtho[1,8-ab]heptalen-2-yl)naphthalen-2-ol]	7 nM	> 1000 nM	210 nM	–	–
Oc1cc(-c2nc3c4c(nc(OC[C@@]56CCCN5C[C@H](F)C6)nc4c2F)N2C[C@H]4CC[C@H](N4)[C@H]2CO3)c2c(OC(F)(F)F)cccc2c1 [Example 3, 4-((5aS,6S,9R)-1-fluoro-12-(((2R,7aS)-2-fluorotetrahydro-1H-pyrrolizin-7a(5H)-yl)methoxy)-5a,6,7,8,9,10-hexahydro-5H-4-oxa-3,10a,11,13,14-pentaaza-6,9-methanonaphtho[1,8-ab]heptalen-2-yl)-5-(trifluoromethoxy)naphthalen-2-ol]	2 nM	160 nM	24 nM	–	–
C#Cc1c(F)ccc2cc(O)cc(-c3nc4c5c(nc(OC[C@@]67CCCN6[C@H](COC(C)(C(F)(F)F)C(F)(F)F)CC7)nc5c3F)N3C[C@H]5CC[C@H](N5)[C@H]3CC4)c12 [Example 109]	0.1 nM	0.8 nM	1.2 nM	–	–
C#Cc1c(F)ccc2cccc(-c3nc4c5c(nc(OC[C@@]67CCCN6C[C@H](F)C7)nc5c3F)N3C[C@H]5CC[C@H](N5)[C@H]3[C@@H](C)C4)c12 [Example 183, (5S,5aR,6S,9R)-2-(8-ethynyl-7-fluoronaphthalen-1-yl)-1-fluoro-12-(((2R,7aS)-2-fluorotetrahydro-1H-pyrrolizin-7a(5H)-yl)methoxy)-5-methyl-4,5,5a,6,7,8,9,10-octahydro-3,10a,11,13,14-pentaaza-6,9-methanonaphtho[1,8-ab]heptalene]	1.9 nM	270 nM	63 nM	–	–
